Assay results reported in patent publication US9527856B2, “Oxindole compounds carrying a CO-bound spiro substituent and use thereof for treating vasopressin-related diseases” (AbbVie Deutschland GmbH & Co. KG, priority 2014, dated 2016).

How the values were obtained:
[1] = biological target: T1, human vasopressin V1b receptor (Homo sapiens, UniProt P47901); assay: biochemical; conditions: Ki(h-V1b)* [nM], CHO-K1 cell membranes, displacement of 3H-AVP
T1 sequence (P47901 1-424): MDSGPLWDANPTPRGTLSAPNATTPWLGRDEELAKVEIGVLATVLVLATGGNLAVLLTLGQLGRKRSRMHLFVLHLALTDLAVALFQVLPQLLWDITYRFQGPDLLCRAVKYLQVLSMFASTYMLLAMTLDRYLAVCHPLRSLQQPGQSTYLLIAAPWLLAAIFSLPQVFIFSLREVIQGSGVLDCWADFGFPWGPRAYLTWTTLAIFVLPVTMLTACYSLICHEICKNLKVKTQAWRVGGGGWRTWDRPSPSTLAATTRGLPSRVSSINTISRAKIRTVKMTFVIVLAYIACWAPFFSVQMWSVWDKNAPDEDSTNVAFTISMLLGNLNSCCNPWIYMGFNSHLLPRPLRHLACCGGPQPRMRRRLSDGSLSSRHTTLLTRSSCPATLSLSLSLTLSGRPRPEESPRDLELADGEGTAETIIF

[2] = biological target: human vasopressin V1a receptor (Homo sapiens, UniProt P37288); assay: Vasopressin V1a receptor binding assay; conditions: selectivity for human V1b over human V1a, quotient of binding constants
Sequence of human vasopressin V1a receptor (P37288 whole entry): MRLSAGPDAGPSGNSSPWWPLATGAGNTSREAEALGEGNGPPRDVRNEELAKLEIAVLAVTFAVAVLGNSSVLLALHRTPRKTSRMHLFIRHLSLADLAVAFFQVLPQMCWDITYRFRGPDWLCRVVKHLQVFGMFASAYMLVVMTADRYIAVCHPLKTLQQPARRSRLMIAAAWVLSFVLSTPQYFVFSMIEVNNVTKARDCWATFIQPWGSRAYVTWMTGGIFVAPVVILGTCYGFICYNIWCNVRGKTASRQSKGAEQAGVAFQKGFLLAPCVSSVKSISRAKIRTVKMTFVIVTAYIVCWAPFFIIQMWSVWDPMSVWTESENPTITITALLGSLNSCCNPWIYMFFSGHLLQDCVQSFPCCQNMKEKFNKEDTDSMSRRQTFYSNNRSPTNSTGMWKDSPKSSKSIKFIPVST

Structure (SMILES)	Ki [1]	Ki(h-V1a)/Ki(h-V1b) [2]
CCOc1ncccc1[C@]1(NC(=O)N2CC3(C2)CN(C2CCN(C(C)C)CC2)C3)C(=O)N(S(=O)(=O)c2ccc(OC)cc2)c2ccc(C#N)cc21 [Example 29, N-[(3S)-5-Cyano-3-(2-ethoxy-3-pyridyl)-1-(4-methoxyphenyl)sulfonyl-2-oxo-indolin-3-yl]-2-(1-isopropyl-4-piperidyl)-2,6-diazaspiro[3.3]heptane-6-carboxamide]	1 to 10 nM	+++ (>75)
CCOc1ncccc1[C@]1(NC(=O)N2CC3(CN(CCN4CCOCC4)C3)C2)C(=O)N(S(=O)(=O)c2ccc(OC)cc2)c2cc(F)c(C#N)cc21 [Example 19, N-[(3S)-5-Cyano-3-(2-ethoxy-3-pyridyl)-6-fluoro-1-(4-methoxyphenyl)sulfonyl-2-oxo-indolin-3-yl]-2-(2-morpholinoethyl)-2,6-diazaspiro[3.3]heptane-6-carboxamide]	1 to 10 nM	+++ (>75)
CCOc1ncccc1[C@]1(NC(=O)N2CC3(CN(CCN4CCOCC4)C3)C2)C(=O)N(S(=O)(=O)c2ccccc2OC)c2ccc(C#N)cc21.O=C(O)C(F)(F)F [Example 11, N-[(3S)-5-Cyano-3-(2-ethoxy-3-pyridyl)-1-(2-methoxyphenyl)sulfonyl-2-oxo-indolin-3-yl]-2-(2-morpholinoethyl)-2,6-diazaspiro[3.3]heptane-6-carboxamide; 2,2,2-trifluoroacetic acid]	1 to 10 nM	+++ (>75)
CCOc1ncccc1[C@]1(NC(=O)N2CC3(CN(CCN4CCOCC4)C3)C2)C(=O)N(S(=O)(=O)c2ccc(F)cc2OC)c2ccc(C#N)cc21 [Example 17, N-[(3S)-5-Cyano-3-(2-ethoxy-3-pyridyl)-1-(4-fluoro-2-methoxy-phenyl)sulfonyl-2-oxo-indolin-3-yl]-2-(2-morpholinoethyl)-2,6-diazaspiro[3.3]heptane-6-carboxamide]	1 to 10 nM	++ (25-75)
CCOc1ncccc1C1(CC(=O)N2CC3(CN(CCN4CCOCC4)C3)C2)C(=O)N(S(=O)(=O)c2ccc(OC)cc2)c2ccc(C#N)cc21 (racemic) [Example 20, 3-(2-Ethoxy-3-pyridyl)-1-(4-methoxyphenyl)sulfonyl-3-[2-[2-(2-morpholinoethyl)-2,6-diazaspiro[3.3]heptan-6-yl]-2-oxo-ethyl]-2-oxo-indoline-5-carbonitrile]	1 to 10 nM	++ (25-75)
CCOc1ncccc1[C@]1(NC(=O)N2CC3(CN(CCN4CCOCC4)C3)C2)C(=O)N(S(=O)(=O)c2ccc(OC)cc2OC)c2ccc(C#N)cc21 [Example 15, N-[(3S)-5-Cyano-1-(2,4-dimethoxyphenyl)sulfonyl-3-(2-ethoxy-3-pyridyl)-2-oxo-indolin-3-yl]-2-(2-morpholinoethyl)-2,6-diazaspiro[3.3]heptane-6-carboxamide]	< 1 nM	+++ (>75)
CCOc1ncccc1[C@]1(NC(=O)N2CC3(CN(CCN4CCCCC4)C3)C2)C(=O)N(S(=O)(=O)c2ccc(OC)cc2)c2ccc(C#N)cc21 [Example 13, N-[(3S)-5-Cyano-3-(2-ethoxy-3-pyridyl)-1-(4-methoxyphenyl)sulfonyl-2-oxo-indolin-3-yl]-2-[2-(1-piperidyl)ethyl]-2,6-diazaspiro[3.3]heptane-6-carboxamide]	< 1 nM	++ (25-75)
CCOc1ncccc1[C@]1(NC(=O)C2CC3(C2)CN(C2CCN(C(C)C)CC2)C3)C(=O)N(S(=O)(=O)c2ccc(OC)cc2)c2ccc(C#N)cc21 [Example 45, N-[(3S)-5-Cyano-3-(2-ethoxy-3-pyridyl)-1-(4-methoxyphenyl)sulfonyl-2-oxo-indolin-3-yl]-6-(1-isopropyl-4-piperidyl)-6-azaspiro[3.3]heptane-2-carboxamide]	10 to 100 nM	+ (10-<25)

Next, values leading:

Ki [1]	Ki(h-V1a)/Ki(h-V1b) [2]	Structure (SMILES)
10 to 100 nM	+++ (>75)	CCOc1ncccc1[C@]1(NC(=O)N2CC3(CN(CCN4CCOCC4)C3)C2)C(=O)N(S(=O)(=O)c2ccc(C#N)cc2)c2ccc(C#N)cc21 [Example 5, N-[(3S)-5-cyano-1-(4-cyanophenyl)sulfonyl-3-(2-ethoxy-3-pyridyl)-2-oxo-indolin-3-yl]-2-(2-morpholinoethyl)-2,6-diazaspiro[3.3]heptane-6-carboxamide]
1 to 10 nM	+ (10-<25)	CCOc1ncccc1[C@]1(NC(=O)C2CC3(C2)CN(C2CN(C)C2)C3)C(=O)N(S(=O)(=O)c2ccc(OC)cc2)c2ccc(C#N)cc21 [Example 46, N-[(3S)-5-Cyano-3-(2-ethoxy-3-pyridyl)-1-(4-methoxyphenyl)sulfonyl-2-oxo-indolin-3-yl]-6-(1-methylazetidin-3-yl)-6-azaspiro[3.3]heptane-2-carboxamide]
10 to 100 nM	+++ (>75)	CCOc1ncccc1C1(NC(=O)N2CC3(C2)CN(C2CCNCC2)C3)C(=O)N(S(=O)(=O)c2ccc(OC)cc2OC)c2ccc(C#N)cc21.O=C(O)C(F)(F)F (stereo not shown) [Example 59, N-(5-Cyano-1-(2,4-dimethoxyphenylsulfonyl)-3-(2-ethoxypyridin-3-yl)-2-oxoindolin-3-yl)-6-(piperidin-4-yl)-2,6-diazaspiro[3.3]heptane-2-carboxamide 2,2,2-trifluoroacetate]
1 to 10 nM	+++ (>75)	CCOc1ncccc1[C@]1(NC(=O)N2CC3(CN(CCN4CCOCC4)C3)C2)C(=O)N(S(=O)(=O)c2ccc(OC)cc2)c2ccc(C#N)cc21 [Example 1, N-[(3S)-5-Cyano-3-(2-ethoxy-3-pyridyl)-1-(4-methoxyphenyl)sulfonyl-2-oxo-indolin-3-yl]-2-(2-morpholinoethyl)-2,6-diazaspiro[3.3]heptane-6-carboxamide]
10 to 100 nM	+++ (>75)	CCOc1ncccc1[C@]1(NC(=O)N2CC3(CN(CCCN4CCOCC4)C3)C2)C(=O)N(S(=O)(=O)c2ccc(OC)cc2)c2ccc(C#N)cc21 [Example 2, N-[(3S)-5-Cyano-3-(2-ethoxy-3-pyridyl)-1-(4-methoxyphenyl)sulfonyl-2-oxo-indolin-3-yl]-2-(3-morpholinopropyl)-2,6-diazaspiro[3.3]heptane-6-carboxamide]
10 to 100 nM	++ (25-75)	CCOc1ncccc1[C@]1(NC(=O)N2CC3(C2)CN(C2CCN(C)CC2)C3)C(=O)N(S(=O)(=O)c2ccc(OC)cc2)c2ccc(C#N)cc21 [Example 33, N-[(3S)-5-Cyano-3-(2-ethoxy-3-pyridyl)-1-(4-methoxyphenyl)sulfonyl-2-oxo-indolin-3-yl]-2-(1-methyl-4-piperidyl)-2,6-diazaspiro[3.3]heptane-6-carboxamide]
10 to 100 nM	+++ (>75)	CCOc1ccccc1[C@]1(NC(=O)N2CC3(C2)CN(C2CCN(C(C)C)CC2)C3)C(=O)N(S(=O)(=O)c2ccc(F)cc2)c2ccc(C#N)cc21.O=C(O)C(F)(F)F [Example 43B, N-[(3S)-5-Cyano-3-(2-ethoxyphenyl)-1-(4-fluorophenyl)sulfonyl-2-oxo-indolin-3-yl]-2-(1-isopropyl-4-piperidyl)-2,6-diazaspiro[3.3]heptane-6-carboxamide; 2,2,2-trifluoroacetic acid]
10 to 100 nM	++ (25-75)	CCOc1ccccc1[C@]1(NC(=O)N2CC3(C2)CN(C2CCN(C)CC2)C3)C(=O)N(S(=O)(=O)c2ccc(OC)cc2OC)c2ccc(C#N)cc21 [Example 39B, N-[(3S)-5-Cyano-1-(2,4-dimethoxyphenyl)sulfonyl-3-(2-ethoxyphenyl)-2-oxo-indolin-3-yl]-2-(1-methyl-4-piperidyl)-2,6-diazaspiro[3.3]heptane-6-carboxamide]
1 to 10 nM	++ (25-75)	CCOc1ncccc1[C@]1(NC(=O)N2CC3(CN(CCN4CCOCC4)C3)C2)C(=O)N(S(=O)(=O)c2ccc(C)cc2)c2ccc(C#N)cc21.O=C(O)C(F)(F)F [Example 10, N-[(3S)-5-Cyano-3-(2-ethoxy-3-pyridyl)-2-oxo-1-(p-tolylsulfonyl)indolin-3-yl]-2-(2-morpholinoethyl)-2,6-diazaspiro[3.3]heptane-6-carboxamide; 2,2,2-trifluoroacetic acid]
10 to 100 nM	++ (25-75)	CCOc1ccccc1[C@]1(NC(=O)N2CC3(C2)CN(C2CCN(C4COC4)CC2)C3)C(=O)N(S(=O)(=O)c2ccc(OC)cc2)c2ccc(C#N)cc21.O=C(O)C(F)(F)F [Example 35B, N-[(3S)-5-Cyano-3-(2-ethoxyphenyl)-1-(4-methoxyphenyl)sulfonyl-2-oxo-indolin-3-yl]-2-[1-(oxetan-3-yl)-4-piperidyl]-2,6-diazaspiro[3.3]heptane-6-carboxamide; 2,2,2-trifluoroacetic acid]
1 to 10 nM	+++ (>75)	CCOc1ncccc1[C@]1(NC(=O)N2CC3(CN(CCN(CC)CC)C3)C2)C(=O)N(S(=O)(=O)c2ccc(OC)cc2)c2ccc(C#N)cc21 [Example 9, N-[(3S)-5-Cyano-3-(2-ethoxy-3-pyridyl)-1-(4-methoxyphenyl)sulfonyl-2-oxo-indolin-3-yl]-2-(2-diethylaminoethyl)-2,6-diazaspiro[3.3]heptane-6-carboxamide]
< 1 nM	+++ (>75)	CCOc1ncccc1[C@]1(NC(=O)N2CC3(CN(CCN4CCOCC4)C3)C2)C(=O)N(S(=O)(=O)c2ccc(OC)cc2)c2ccc(C#N)cc21.O=C(O)C(F)(F)F [Example 1B, N-[(3S)-5-cyano-3-(2-ethoxy-3-pyridyl)-1-(4-methoxyphenyl)sulfonyl-2-oxo-indolin-3-yl]-2-(2-morpholinoethyl)-2,6-diazaspiro[3.3]heptane-6-carboxamide; 2,2,2-trifluoroacetic acid]
